# Assay results from ChEMBL document CHEMBL3046518, “Phytotoxic Compounds Cochlioquinones Are Inhibitors of Mitochondrial NADH-Ubiquinone Reductase” (J Pestic Sci, 1996).
# Activity calls are given as the source filed them. The calls are words filed in the database; no cut-off is given here.
# What was measured:
# [1] = tested on: Solanum tuberosum; test: Inhibition of Solanum tuberosum (potato) tuber electron transport protein complex 2 activity
# [2] = tested on: Solanum tuberosum; test: Inhibition of Solanum tuberosum (potato) tuber electron transport protein complex 3 activity
# [3] = Inhibition of Bos taurus (bovine) heart mitochondrial electron transport protein complex 1 assessed per mg protein
# [4] = Inhibition of Bos taurus (bovine) heart mitochondrial […] activity assessed per mg protein
# [5] = Inhibition of Bos taurus (bovine) heart mitochondrial electron transport protein complex 2/3 assessed per mg protein
# [6] = tested on: Solanum tuberosum; test: Inhibition of Solanum tuberosum (potato) tuber electron transport protein complex 4 activity
# [7] = tested on: Solanum tuberosum; test: Inhibition of Solanum tuberosum (potato) tuber succinate oxidase activity at 3600 nmol/mg protein
# [8] = Inhibition of Solanum tuberosum (potato) tuber proton-pump NADH dehydrogenase activity assessed per mg protein
# [9] = Inhibition of Bos taurus (bovine) heart mitochondrial electron transport protein complex 2 assessed per mg protein
# [10] = Inhibition of Bos taurus (bovine) heart mitochondrial electron transport protein complex 3 assessed per mg protein
# [11] = Inhibition of Bos taurus (bovine) heart mitochondrial electron transport protein complex 4 assessed per mg protein
smiles,measurement,setting,value
CC[C@H](C)C(=O)[C@@H](C)C1=CC(=O)C2=C(O[C@]3(C)CC[C@H]4O[C@@H](C(C)(C)O)CC[C@]4(C)[C@H]3C2)C1=O [COCHLIOQUINONE B],inhibition,[1],inactive
same,inhibition,[2],inactive
same,IC50,[3],370 nmol
same,IC50,[4],83 nmol
same,IC50,[5],> 3600 nmol
same,inhibition,[6],inactive
same,inhibition,[7],inactive
same,IC50,[8],3000 nmol
same,IC50,[9],> 3600 nmol
same,IC50,[10],> 3600 nmol
same,IC50,[11],> 3600 nmol
CC[C@H](C)[C@@H](OC(C)=O)[C@@H](C)C1=CC(=O)C2=C(O[C@]3(C)CC[C@H]4O[C@@H](C(C)(C)O)CC[C@]4(C)[C@H]3[C@@H]2O)C1=O [COCHLIOQUINONE A],IC50,[4],115 nmol
CC[C@H](C)[C@@H](OC(C)=O)[C@@H](C)c1cc(O)c2c(c1O)O[C@]1(C)CC[C@H]3O[C@@H](C(C)(C)O)CC[C@]3(C)[C@H]1C2=O [ISOCOCHLIOQUINONE A],IC50,[4],56 nmol
C/C=C(\C)[C@@H](OC(C)=O)[C@@H](C)C1=CC(=O)C2=C(O[C@]3(C)CC[C@H]4O[C@@H](C(C)(C)O)CC[C@]4(C)[C@H]3[C@@H]2O)C1=O [STEMPHONE],IC50,[4],160 nmol
